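How tested: cells in 96-well plates exposed to compound for 48 hours at five concentrations. At the GI50, growth is halved.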 The source made the active and inactive calls. Cut-off read from the data, not from the text of the source: active = GI50 up to about 1.1 µM and inactive = higher.
Tests used:
Assay in all cases: growth of human tumour cells (NCI), 48 h
IGROV-1 = tested on: IGROV-1
SW-620 = tested on: SW-620
Malme-3M = tested on: Malme-3M
SNB-75 = tested on: SNB-75
MOLT-4 = tested on: MOLT-4
MCF7 = tested on: MCF7
U-251 = tested on: U-251
DU-145 = tested on: DU-145
A498 = tested on: A498
CAKI-1 = tested on: CAKI-1
KM12 = tested on: KM12
CCRF-CEM = tested on: CCRF-CEM
EKVX = tested on: EKVX
OVCAR-8 = tested on: OVCAR-8
NCI-H522 = tested on: NCI-H522
PC-3 = tested on: PC-3
SNB-19 = tested on: SNB-19
OVCAR-5 = tested on: OVCAR-5
COLO 205 = tested on: COLO 205
A549 = tested on: A549
SF-295 = tested on: SF-295
TK-10 = tested on: TK-10
SK-MEL-5 = tested on: SK-MEL-5
HOP-62 = tested on: HOP-62
MDA-MB-231 = tested on: MDA-MB-231
Hs-578T = tested on: Hs-578T
M14 = tested on: M14
ACHN = tested on: ACHN
BT-549 = tested on: BT-549
786-0 = tested on: 786-0
UACC-62 = tested on: UACC-62
K562 = tested on: K562
UACC-257 = tested on: UACC-257
HOP-92 = tested on: HOP-92
HL-60 = tested on: HL-60
SK-MEL-2 = tested on: SK-MEL-2
SF-539 = tested on: SF-539
SK-OV-3 = tested on: SK-OV-3
HCC 2998 = tested on: HCC 2998
HCT-116 = tested on: HCT-116
T47D = tested on: T47D
SR = tested on: SR
OVCAR-4 = tested on: OVCAR-4
MDA-MB-435 = tested on: MDA-MB-435
NCI-H226 = tested on: NCI-H226
HCT-15 = tested on: HCT-15
NCI-H460 = tested on: NCI-H460
RPMI-8226 = tested on: RPMI-8226
UO-31 = tested on: UO-31
RXF 393 = tested on: RXF 393
HT-29 = tested on: HT-29
NCI-H23 = tested on: NCI-H23
SK-MEL-28 = tested on: SK-MEL-28
LOX IMVI = tested on: LOX IMVI
SF-268 = tested on: SF-268
NCI/ADR-RES = tested on: NCI/ADR-RES
OVCAR-3 = tested on: OVCAR-3
SN12C = tested on: SN12C

O=C(O)C1=NN(c2ccc(S(=O)(=O)O)cc2)C2(C1)SCC(=O)N2c1nc2ccccc2s1 (centres undefined)
GI50 (IGROV-1): > 100 µM (inactive) | GI50 (SW-620): > 100 µM (inactive) | GI50 (Malme-3M): > 100 µM (inactive) | GI50 (SNB-75): > 100 µM (inactive) | GI50 (MOLT-4): > 100 µM (inactive) | GI50 (MCF7): > 100 µM (inactive) | GI50 (U-251): > 100 µM (inactive) | GI50 (DU-145): > 100 µM (inactive) | GI50 (A498): > 100 µM (inactive) | GI50 (CAKI-1): > 100 µM (inactive) | GI50 (KM12): > 100 µM (inactive) | GI50 (CCRF-CEM): > 100 µM (inactive) | GI50 (EKVX): > 100 µM (inactive) | GI50 (OVCAR-8): > 100 µM (inactive) | GI50 (NCI-H522): > 100 µM (inactive) | GI50 (PC-3): > 100 µM (inactive) | GI50 (SNB-19): > 100 µM (inactive) | GI50 (OVCAR-5): > 100 µM (inactive) | GI50 (COLO 205): > 100 µM (inactive) | GI50 (A549): > 100 µM (inactive) | GI50 (SF-295): > 100 µM (inactive) | GI50 (TK-10): > 100 µM (inactive) | GI50 (SK-MEL-5): > 100 µM (inactive) | GI50 (HOP-62): > 100 µM (inactive) | GI50 (MDA-MB-231): > 100 µM (inactive) | GI50 (Hs-578T): > 100 µM (inactive) | GI50 (M14): > 100 µM (inactive) | GI50 (ACHN): > 100 µM (inactive) | GI50 (BT-549): > 100 µM (inactive) | GI50 (786-0): > 100 µM (inactive) | GI50 (UACC-62): > 100 µM (inactive) | GI50 (K562): > 100 µM (inactive) | GI50 (UACC-257): > 100 µM (inactive) | GI50 (HOP-92): > 100 µM (inactive) | GI50 (HL-60): > 100 µM (inactive) | GI50 (SK-MEL-2): > 100 µM (inactive) | GI50 (SF-539): > 100 µM (inactive) | GI50 (SK-OV-3): > 100 µM (inactive) | GI50 (HCC 2998): > 100 µM (inactive) | GI50 (HCT-116): > 100 µM (inactive) | GI50 (T47D): > 100 µM (inactive) | GI50 (SR): > 100 µM (inactive) | GI50 (OVCAR-4): > 100 µM (inactive) | GI50 (MDA-MB-435): > 100 µM (inactive) | GI50 (NCI-H226): 5.3 µM (inactive) | GI50 (HCT-15): > 100 µM | GI50 (NCI-H460): > 100 µM (inactive) | GI50 (RPMI-8226): > 100 µM (inactive) | GI50 (UO-31): > 100 µM (inactive) | GI50 (RXF 393): > 100 µM (inactive) | GI50 (HT-29): > 100 µM (inactive) | GI50 (NCI-H23): > 100 µM (inactive) | GI50 (SK-MEL-28): > 100 µM (inactive) | GI50 (LOX IMVI): > 100 µM (inactive) | GI50 (SF-268): > 100 µM (inactive) | GI50 (NCI/ADR-RES): > 100 µM (inactive) | GI50 (OVCAR-3): > 100 µM (inactive) | GI50 (SN12C): > 100 µM (inactive)

O=[N+]([O-])/C=C/c1ccc2ccccc2c1
GI50 (IGROV-1): 2.79 µM (inactive) | GI50 (SW-620): 2.47 µM (inactive) | GI50 (Malme-3M): 15.6 µM (inactive) | GI50 (SNB-75): 2 µM (inactive) | GI50 (MCF7): 1.86 µM (inactive) | GI50 (U-251): 1.92 µM (inactive) | GI50 (DU-145): 4.07 µM (inactive) | GI50 (A498): 13 µM (inactive) | GI50 (CAKI-1): 8.43 µM (inactive) | GI50 (KM12): 1.77 µM (inactive) | GI50 (CCRF-CEM): 4.61 µM (inactive) | GI50 (EKVX): 22.7 µM (inactive) | GI50 (OVCAR-8): 2.69 µM (inactive) | GI50 (NCI-H522): 9.68 µM (inactive) | GI50 (PC-3): 6.49 µM (inactive) | GI50 (SNB-19): 2.19 µM (inactive) | GI50 (OVCAR-5): 3.52 µM (inactive) | GI50 (COLO 205): 2.29 µM (inactive) | GI50 (A549): 8.05 µM (inactive) | GI50 (SF-295): 3.99 µM (inactive) | GI50 (TK-10): 6.21 µM (inactive) | GI50 (SK-MEL-5): 3.19 µM (inactive) | GI50 (HOP-62): 5.53 µM (inactive) | GI50 (MDA-MB-231): 3.82 µM (inactive) | GI50 (Hs-578T): 4.44 µM (inactive) | GI50 (M14): 3.99 µM (inactive) | GI50 (ACHN): 1.96 µM (inactive) | GI50 (BT-549): 2.74 µM (inactive) | GI50 (786-0): 2.85 µM (inactive) | GI50 (UACC-62): 15.4 µM (inactive) | GI50 (K562): 3.78 µM (inactive) | GI50 (UACC-257): 2.6 µM (inactive) | GI50 (HOP-92): 6.62 µM (inactive) | GI50 (HL-60): 2.37 µM (inactive) | GI50 (SK-MEL-2): 22.6 µM (inactive) | GI50 (SF-539): 3.04 µM (inactive) | GI50 (SK-OV-3): 2.57 µM (inactive) | GI50 (HCT-116): 2.73 µM (inactive) | GI50 (T47D): 0.692 µM (active) | GI50 (SR): 0.436 µM (active) | GI50 (OVCAR-4): 13.3 µM (inactive) | GI50 (MDA-MB-435): 2.04 µM (inactive) | GI50 (NCI-H226): 7.89 µM (inactive) | GI50 (HCT-15): 2.22 µM | GI50 (NCI-H460): 6.81 µM (inactive) | GI50 (RPMI-8226): 0.372 µM (active) | GI50 (UO-31): 7.41 µM (inactive) | GI50 (RXF 393): 2.49 µM (inactive) | GI50 (HT-29): 2.53 µM (inactive) | GI50 (NCI-H23): 3.6 µM (inactive) | GI50 (SK-MEL-28): 2.23 µM (inactive) | GI50 (LOX IMVI): 1.87 µM (inactive) | GI50 (SF-268): 4.57 µM (inactive) | GI50 (NCI/ADR-RES): 4.27 µM (inactive) | GI50 (OVCAR-3): 2.86 µM (inactive) | GI50 (SN12C): 5.64 µM (inactive)
